Laboratory results from patent US6849644B2, “Isoquinoline derivatives useful in the treatment of CNS disorders” (SmithKline Beecham p.l.c., priority 2000, dated 2005).
pKi: −log10 of the molar value. Where a name gives a salt, the structure may show the parent alone.

Biological target: T1, human cloned 5-HT6 receptors (Homo sapiens, UniProt P50406)
T1 construct: expressed in transfected cells
Assay: 5-HT6 receptor binding affinity (procedures outlined in WO 98/27081)
Excerpt: Compounds can be tested following the procedures outlined in WO 98/27081.

T1 sequence (P50406 whole entry): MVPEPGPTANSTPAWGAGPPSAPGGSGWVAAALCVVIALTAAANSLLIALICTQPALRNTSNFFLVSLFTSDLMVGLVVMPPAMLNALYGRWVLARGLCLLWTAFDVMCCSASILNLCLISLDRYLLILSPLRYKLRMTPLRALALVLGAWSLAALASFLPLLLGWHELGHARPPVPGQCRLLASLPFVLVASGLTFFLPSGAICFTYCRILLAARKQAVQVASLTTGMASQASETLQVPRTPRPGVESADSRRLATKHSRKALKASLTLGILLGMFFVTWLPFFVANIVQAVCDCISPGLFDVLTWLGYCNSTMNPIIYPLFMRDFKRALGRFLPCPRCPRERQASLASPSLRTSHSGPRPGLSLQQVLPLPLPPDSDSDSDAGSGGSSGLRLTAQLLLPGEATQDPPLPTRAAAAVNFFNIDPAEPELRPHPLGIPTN

Structure (SMILES)	pKi
O=S(=O)(c1ccc2c(c1)CNCC2)n1ccc2ccccc21 [Example E1, 7-(Indole-1-sulfonyl)-1,2,3,4-tetrahydro-isoquinoline Hydrochloride]	8.20 to 8.90
O=S(=O)(c1ccc2c(c1)CNCC2)n1c2c(c3ccccc31)CCCC2 [Example E9, 9-(1,2,3,4-Tetrahydro-isoquinoline-7-sulfonyl)-2,3,4,9-tetrahydro-1H-carbazole]	8.20 to 8.90
Cc1cn(S(=O)(=O)c2ccc3c(c2)CNCC3)c2ccccc12 [Example E10, 7-(3-Methyl-indole-1-sulfonyl)-1,2,3,4-tetrahydro-isoquinoline]	8.20 to 8.90
O=S(=O)(c1ccc2c(c1)CNCC2)n1c(-c2ccccc2)cc2cc(F)ccc21 [Example E13, 7-(5-Fluoro-2-phenyl-indole-1-sulfonyl)-1,2,3,4-tetrahydro-isoquinoline]	8.20 to 8.90
O=S(=O)(c1ccc2c(c1)CNCC2)n1ccc2ccc(Cl)cc21 [Example E16, 7-(6-Chloro-indole-1-sulfonyl)-1,2,3,4-tetrahydro-isoquinoline]	8.20 to 8.90
O=S(=O)(c1ccc2c(c1)CNCC2)n1ccc2c(Cl)cccc21 [Example E17, 7-(4-Chloro-indole-1-sulfonyl)-1,2,3,4-tetrahydro-isoquinoline]	8.20 to 8.90
COc1ccc2ccn(S(=O)(=O)c3ccc4c(c3)CNCC4)c2c1 [Example E19, 7-(6-Methoxy-indole-1-sulfonyl)-1,2,3,4-tetrahydro-isoquinoline]	8.20 to 8.90
Cc1ccc2ccn(S(=O)(=O)c3ccc4c(c3)CNCC4)c2c1 [Example E20, 7-(6-Methyl-indole-1-sulfonyl)-1,2,3,4-tetrahydro-isoquinoline]	8.20 to 8.90
Cc1cccc2c1ccn2S(=O)(=O)c1ccc2c(c1)CNCC2 [Example E21, 7-(4-Methyl-indole-1-sulfonyl)-1,2,3,4-tetrahydro-isoquinoline]	8.20 to 8.90
O=S(=O)(c1ccc2c(c1)CNCC2)n1ccc2ccc(F)cc21 [Example E22, 7-(6-Fluoro-indole-1-sulfonyl)-1,2,3,4-tetrahydro-isoquinoline]	8.20 to 8.90
O=S(=O)(c1ccc2c(c1)CNCC2)n1ccc2cc(F)c(F)cc21 [Example E23, 7-(5,6-Difluoro-indole-1-sulfonyl)-1,2,3,4-tetrahydro-isoquinoline]	8.20 to 8.90
O=S(=O)(c1ccc2c(c1)CNCC2)n1ccc2ccc(C(F)(F)F)cc21 [Example E24, 7-(6-Trifluoromethyl-indole-1-sulfonyl)-1,2,3,4-tetrahydro-isoquinoline]	8.20 to 8.90
O=S(=O)(c1ccc2c(c1)CNCC2)n1c2ccccc2c2ccccc21 [Example E26, 9-(1,2,3,4-tetrahydro-isoquinoline-7-sulfonyl)-9H-carbazole]	8.20 to 8.90
O=S(=O)(c1ccc2c(c1)CNCC2)n1cc(-c2ccccc2)c2ccccc21 [Example E35, 7-(3-Phenyl-indole-1-sulfonyl)-1,2,3,4-tetrahydro-isoquinoline Hydrochloride]	8.20 to 8.90
